Where two headings read alike, the source gives them in different places.
Target: recombinant eIF4E (Homo sapiens (Human), UniProt P06730)
Test: Fluorescence polarization competition assay for eIF4E binding potency
Summary of the method: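 IC50 values reflect 50% displacement of 20 nM EDA-m7GDP-ATTO-550 from 75 nM eIF4E, measured by fluorescence polarization after 30 min at room temperature. Buffer: 20 mM Tris pH 7.5, 100 mM NaCl, 1 mM DTT, 0.02% Tween-20; 1% DMSO.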

[1] = fluorescence polarization competition, 75 nM recombinant eIF4E, 20 nM EDA-m7GDP-ATTO-550, IC50 class, read-out: elF4E FP
[2] = inhibition of eIF4E/EDA-m7GDP-ATTO-550 binding by 50%, Table 4B calculated values, read-out: IC50
[3] = inhibition of eIF4E/EDA-m7GDP-ATTO-550 binding, calculated IC50 values, Table 4B, read-out: IC50

Chain of recombinant eIF4E (P06730 whole entry): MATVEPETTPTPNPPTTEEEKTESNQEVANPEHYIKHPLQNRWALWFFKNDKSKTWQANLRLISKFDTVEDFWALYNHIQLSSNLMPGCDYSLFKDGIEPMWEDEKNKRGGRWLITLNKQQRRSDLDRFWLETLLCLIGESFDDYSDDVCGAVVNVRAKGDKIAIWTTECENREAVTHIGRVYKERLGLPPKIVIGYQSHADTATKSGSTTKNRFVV

Row | Structure (SMILES) | IC50 [1] [nM] | IC50 [2] [nM] | IC50 [3] [nM]
1 | Cc1cc(-c2cc(Cl)ccc2OCCn2c(C)nc3cc(C(F)(F)F)c(-c4cncc(C(F)(F)F)n4)nc3c2=O)c2scc(C(=O)O)c2n1 [compound 1021] | < 50 | 21.1 | 
2 | Cc1cc(-c2c(C(F)(F)F)cc3nc(C)n(CCOc4ccc(Cl)cc4-c4cc(C)nc5c(C(=O)O)csc45)c(=O)c3c2C#N)c(C)cn1 [compound 469] | < 50 | 2.25 | 
3 | Cc1nc2cnc(C3CCCN(CC(F)F)C3)c(C#N)c2c(=O)n1CC#Cc1ccc(Cl)cc1-c1ccnc2c(C(=O)O)csc12 (stereo not drawn) [compound 1574] |  |  | 13.4
4 | Cc1cc(-c2cc(Cl)ccc2OCCn2c(C)nc3c(C)nc(N4CCN(C)CC4)c(C#N)c3c2=O)c2scc(C(=O)O)c2n1 [compound 875] | < 50 |  | 
5 | Cc1nc2cnc(N(C)C3CCN(CC(F)(F)F)CC3)c(C#N)c2c(=O)n1CC#Cc1ccc(Cl)cc1-c1ccnc2c(C(=O)NS(=O)(=O)CC(F)(F)F)csc12 [compound 1593] |  |  | 61.6
6 | Cc1cc(-c2cc(Cl)ccc2OCCn2c(C)nc3cc(C(F)(F)F)c(-c4ccccc4C#N)nc3c2=O)c2scc(C(=O)O)c2n1 [345a] |  | 43.2 | 
7 | Cc1nc2cnc(N(C)C3CCN(CC(F)F)CC3)c(C#N)c2c(=O)n1CC#Cc1ccc(Cl)cc1-c1ccnc2c(C(N)=O)csc12 [compound 1281] |  |  | 117
8 | Cc1nc2cc(C(F)(F)F)cc(C#N)c2c(=O)n1CCOc1ccc(Cl)cc1-c1nsc2c(C(=O)O)csc12 [compound 315] | 50 to 1000 | 582 | 
9 | Cc1cc(-c2nc(C)c3nc(C)n(CCOc4ccc(Cl)cc4-c4cc(C)nc5c(C(=O)O)csc45)c(=O)c3c2C#N)ccn1 [compound 911] | < 50 | 17.1 | 
10 | Cc1nc2cc(C(F)(F)F)c(N3CC4(C3)CN(C3CC3)C4)c(C#N)c2c(=O)n1CCOc1ccc(Cl)cc1-c1ccnc2ccsc12 [compound 2015] |  |  | 51.1
11 | Cc1cc(-c2cc(Cl)ccc2OCCn2c(C)nc3cc(Cl)c(N4CCC4(C)C)c(C#N)c3c2=O)c2scc(C(=O)O)c2n1 [compound 918] | < 50 | 4.37 | 
12 | Cc1nc2cc(C(F)(F)F)c(N3CC4(C3)CN(C3CC3)C4)c(C#N)c2c(=O)n1CC#Cc1ccc(Cl)cc1-c1ccnc2c(C(=O)O)csc12 [compound 1570] |  |  | 22.9
13 | Cc1nc2cc(C(F)(F)F)cc(C#N)c2c(=O)n1CCOc1ccc(Cl)cc1-c1csc2c(C(=O)O)csc12 [compound 203] | 50 to 1000 | 80.6 | 
14 | Cc1nc2ccc(CCN(C)C)c(C#N)c2c(=O)n1CCOc1ccc(Cl)cc1-c1ccnc2c(C(=O)O)csc12 [compound 507] | < 50 | 49 | 
15 | Cc1nc2cc(C(F)(F)F)cc(C#N)c2c(=O)n1CCOc1ccc(Cl)cc1-c1ccnc2c(C(=O)O)c(Cl)sc12 [compound 266] | < 50 | 26.6 | 
16 | Cc1cc(-c2cc(Cl)ccc2OCCn2c(C)nc3cc(C(F)(F)F)c(N4CCCCC4)c(C#N)c3c2=O)c2scc(C(=O)O)c2n1 [compound 423] | < 50 | 8.84 | 
17 | Cc1cc(-c2cc(Cl)ccc2OCCn2c(C)nc3c(C)nc(-c4cc(F)cnc4C)c(C#N)c3c2=O)c2scc(C(=O)O)c2n1 [compound 441] | < 50 | 20.4 | 
18 | Cc1nc2cnc(N3CCN(CCOC(F)F)CC3)c(C#N)c2c(=O)n1CC#Cc1ccc(Cl)cc1-c1ccnc2c(C(=O)O)csc12 [compound 1464] |  |  | 13.4
19 | Cn1cc(CCOc2ccc(Cl)cc2-c2ccnc3c(C(=O)O)csc23)c(=O)c2c(C#N)cc(C(F)(F)F)cc21 [compound 353] | 50 to 1000 | 101 | 
20 | Cc1cc(-c2cc(Cl)ccc2OCCn2c(C)nc3cc(C(F)(F)F)cc(C#N)c3c2=O)cc(CC(=O)O)n1 [compound 411] | 50 to 1000 | 193 | 
21 | Cc1nc2cc(C(F)F)cc(C#N)c2c(=O)n1CCOc1ccc(Cl)cc1-c1cccc(C(=O)O)c1 [compound 153] | 50 to 1000 | 54 | 
22 | N#Cc1cc(C(F)(F)F)cc2nc(Cl)n(CCOc3ccc(Cl)cc3-c3cccc(C(=O)O)c3)c(=O)c12 [compound 187] | < 50 | 48.3 | 
23 | Cc1nc2c(C(F)F)ccc(C#N)c2c(=O)n1CCOc1ccc(Cl)cc1-c1ccnc2c(C(=O)O)csc12 [compound 360] | < 50 | 42.6 | 
24 | N#Cc1cc2c(=O)n(CCOc3ccc(Cl)cc3-c3cc(C(=O)O)cs3)cnc2cn1 [compound 83] | > 1000 | 2560 | 
25 | Cc1nc2cc(CN(C)C)c(Cl)c(C#N)c2c(=O)n1CCOc1ccc(Cl)cc1-c1ccnc2c(C(=O)O)csc12 [compound 516] | < 50 | 34.4 | 
26 | Cc1cccc(-c2ncc3nc(C)n(CCOc4ccc(Cl)cc4-c4cc(C)nc5c(C(=O)O)csc45)c(=O)c3c2C#N)c1 [compound 945] | < 50 | 38.9 | 
27 | Cc1nc2cnc(C3CC3)c(C#N)c2c(=O)n1CCOc1ccc(Cl)cc1-c1cc(CF)nc2c(C(=O)O)csc12 [compound 917] | < 50 | 11 | 

Row | Structure (SMILES) | IC50 [1] [nM] | IC50 [2] [nM] | IC50 [3] [nM]
28 | Cc1nc2cnc(N3CCN(C(C)(C)CC#N)CC3)c(C#N)c2c(=O)n1CCOc1ccc(Cl)cc1-c1ccnc2c(C(=O)O)csc12 [compound 1343] |  |  | 40.6
29 | Cc1nc2cc(C(F)(F)F)c(N3CC4(C3)CN(C3CC3)C4)c(C#N)c2c(=O)n1CCCc1ccc(Cl)cc1-c1ccnc2c(C(=O)O)csc12 [compound 1158] | < 50 | 15.8 | 
30 | Cc1nc2cnc(N(C)C3CCN(C(C)C(F)F)CC3)c(C#N)c2c(=O)n1CCOc1ccc(Cl)cc1-c1ccnc2c(C(=O)O)csc12 (stereo not drawn) [compound 1662] |  |  | 22.1
31 | Cc1nc2cc(C(F)(F)F)cc(C#N)c2c(=O)n1CCOc1ccc(Cl)cc1-c1ccnc2c(C(=O)O)csc12 [compound 61] | < 50 | 26.5 | 
32 | N#Cc1cc2c(=O)n(CCOc3ccc(Cl)cc3-c3cnc(C(F)F)c(C(=O)O)c3)cnc2cn1 [compound 109] | > 1000 | 19200 | 
33 | N#Cc1cc(C(F)(F)F)cc2nc(CF)n(CCOc3ccc(Cl)cc3-c3ccnc4c(C(=O)O)csc34)c(=O)c12 [compound 181] | 50 to 1000 | 62.3 | 
34 | Cc1cc(-c2cc(Cl)ccc2OCCn2c(C)nc3c(F)cc(C(F)F)c(C#N)c3c2=O)c2scc(C(=O)NS(C)(=O)=O)c2n1 [compound 566] | < 50 | 16.4 | 
35 | Cc1cc(-c2cc(Cl)ccc2OCCn2c(C)nc3ccc(CCN(C)C)c(C#N)c3c2=O)c2scc(C(=O)NS(C)(=O)=O)c2n1 [compound 1138] | < 50 | 23.7 | 
36 | Cc1nc2cnc(N(C)C3CCN(CC(F)(F)Cl)CC3)c(C#N)c2c(=O)n1CCOc1ccc(Cl)cc1-c1ccnc2c(C(=O)O)csc12 [compound 1441] |  |  | 29.8
37 | O=C(O)c1cccc(-c2cc(Cl)ccc2OCCn2cnc3nccnc3c2=O)c1 [compound 19] | 50 to 1000 | 838 | 
38 | Cc1nc2cnc(N(C)C3CCN(CC(F)(F)Cl)CC3)c(C#N)c2c(=O)n1CC#Cc1ccc(Cl)cc1-c1ccnc2c(C(=O)O)csc12 [compound 1585] |  |  | 15.2
39 | Cc1nc2cc(C(F)(F)F)c(CN(C)C)c(C#N)c2c(=O)n1CCOc1ccc(Cl)cc1-c1ccnc2ccsc12 [compound 2016] |  |  | 613
40 | Cc1nc2cc(C(F)(F)F)c(N3CCN(CCF)CC3)c(C#N)c2c(=O)n1CCOc1ccc(Cl)cc1-c1ccnc2c(C(=O)O)csc12 [compound 655] | < 50 | 13.5 | 
41 | Cc1cc(-c2cc(Cl)ccc2OCCn2c(C)nc3cc(C(F)(F)F)c(Cc4ccccn4)nc3c2=O)c2scc(C(=O)O)c2n1 [compound 390] | < 50 | 1.75 | 
42 | Cc1ncc(C#N)c2c(=O)n(CCOc3ccc(Cl)cc3-c3ccnc4c(C(=O)O)csc34)c(C)nc12 [compound 674] | < 50 |  | 
43 | Cc1nc2cnc(N(C)C3CCN(C4CC(F)(F)C4)CC3)c(C#N)c2c(=O)n1CC#Cc1ccc(Cl)cc1-c1ccnc2c(C(=O)NS(=O)(=O)CC#N)csc12 [compound 1825] |  |  | 17.1
44 | Cc1nc2cnc(N3CCC[C@@H]4CN(CC(F)F)CC[C@@H]43)c(C#N)c2c(=O)n1CC#Cc1ccc(Cl)cc1-c1ccnc2c(C(=O)O)csc12 [compound 1544] |  |  | 13.1
45 | CCc1cc(-c2cc(Cl)ccc2OCCn2c(C)nc3cc(C(F)(F)F)cc(C#N)c3c2=O)c2scc(C(=O)O)c2n1 [compound 330] | < 50 | 47.7 | 
46 | CCN(c1ncc2nc(C)n(CC#Cc3ccc(Cl)cc3-c3ccnc4c(C(=O)NS(=O)(=O)C5COC5)csc34)c(=O)c2c1C#N)C1CCN([C@H]2C[C@H](OC(F)F)C2)CC1 [compound 1768] |  |  | 31.3
47 | Cc1cc(-c2cc(Cl)ccc2OCCn2c(C)nc3cc(C)c(CN(C)C)c(C#N)c3c2=O)c2scc(C(=O)O)c2n1 [compound 1379] |  |  | 18
48 | Cc1nc2cnc(N3CCN(C)CC3)c(C#N)c2c(=O)n1CCOc1ccc(Cl)cc1-c1ccnc2ccsc12 [compound 1257] |  |  | 52.5
49 | Cc1nc2cnc(N(C)C3CCN(CC(F)F)CC3)c(C#N)c2c(=O)n1CC#Cc1ccc(Cl)cc1-c1ccnc2c(C(=O)NS(=O)(=O)CC(F)(F)F)csc12 [compound 1597] |  |  | 22.1
50 | Cc1nc2cnc(N(C)[C@H]3[C@@H]4C[C@H]3CN(CC(C)(F)F)C4)c(C#N)c2c(=O)n1CC#Cc1ccc(Cl)cc1-c1ccnc2c(C(=O)O)csc12 [compound 1577] |  |  | 13.3
51 | Cc1nc2cnc(N3CCN(C)C4CC43)c(C#N)c2c(=O)n1C/C=C/c1ccc(Cl)cc1-c1ccnc2c(C(=O)O)csc12 (stereo not drawn) [compound 1347] |  |  | 41.4
52 | Cc1cc(-c2cc(Cl)ccc2OCCn2c(C)nc3cc(C(F)(F)F)c(-c4cccnc4C)c(C#N)c3c2=O)c2scc(C(=O)O)c2n1 [compound 735] | 50 to 1000 | 58 | 
53 | Cc1cc(-c2cc(Cl)ccc2OCCn2c(C)nc3c(OC(F)F)ncc(C#N)c3c2=O)c2scc(C(=O)O)c2n1 [compound 604] | 50 to 1000 | 70.7 | 
